# Measured values reported in patent publication US20130039929A1, “METHOD TREATING BREAST CANCER” (priority 2010, published 2013).
# Test system: HIF-1 dependent transcription
# Assay: 5×HRE luciferase reporter assay of hypoxia (CoCl2)-induced transcription in MDAMB-231 cells
# Assay type: cell-based
# Conditions: CoCl2 along with thalidomide 10 μM
# Excerpt: FIGS. 5A-5E. FIG. 5A. Schematic map of luciferase reporter used; HRE: hypoxia responsive element. FIG. 5B. Assay of hypoxia-induced luciferase activity in the presence of each indicated siRNA transfection. **p<0.001, * p<0.01 versus control/CoCl2 one-way ANOVA, Bonferroni post test. FIG. 5C. Western blot showing the efficiency of knockdown for each βarr isoform. FIG. 5D. Assay of hypoxia induced luciferase reporter activity in Mouse Embryonic Fibroblasts (MEFs) that are null for both βarr1 and 2 under control and βarr1 replete conditions. *** p<0.001, between the two cobalt treated samples, Bonferroni post test, one-way ANOVA, n=3. FIG. 5E. Western blot of lysates showing expression of transfected βarr1.
# FIGS. 7A-7D. FIG. 7A. […] FIG. 7B. […] FIG. 7C. […] FIG. 7D.
# To test if the above β-arrestin1-HIF-1α interaction has functional consequences, an analysis was made of the effect of β-arrestin1 expression on HIF-1-mediated transcription during hypoxia. One of the most characterized HIF-regulated genes is the potent endothelial mitogen, VEGF-A, which regulates endothelial cell proliferation and blood vessel formation in both normal and cancerous tissues (Liu et al, Circ. Res. 77:638-643 (1995)). The VEGF-A gene contains a HRE in its 5′ UTR (untranslated region) and hypoxia induces a rapid and sustained increase in VEGF-A mRNA levels. […]
smiles,measurement,value
O=C1CCC(N2C(=O)c3ccccc3C2=O)C(=O)N1 (stereo not shown) [thalidomide],HIF-1 dependent transcriptional response (5×HRE luciferase reporter activity),complete inhibition
